Laboratory results reported in US8299124B2, “Aqueous intraocular penetration-promoting eye drop” (Senju Pharmaceutical Co., Ltd., priority 2004, dated 2012).

What was measured:
[1] = test system: intraocular inflammation after anterior chamber puncture; test: Medicinal efficacy test in a model rabbit of anterior chamber puncture; type: in vivo, Male Dutch rabbits; settings: after anterior chamber puncture in rabbits
Experimental: The concentration of said medicament in the anterior chamber can be measured by the HPLC method for the anterior aqueous humor collected through anterior chamber puncture, as shown in Experimental Example 1 (Penetration Test of a Medicament in the Aqueous Humor) described below. Male Dutch rabbits (Biotech Co., Ltd) with a body weight of about 2 kg was bred and acclimatized under the condition that the temperature was 23±2° C. and the humidity was 55±10%. On the day of the test, the flare value of anterior chamber in the rabbits was determined by a laser flare cell meter (FC-1000, Kowa Company, Ltd.). […] The eye drops of Formulations 4 to 6 in Table 4 were prepared and used. At 30 minutes before the puncture of the anterior chamber, 1,000 U/kg of heparin (Heparin sodium injection, Ajinomoto Co., Inc.) was administered into the rabbit's ear vein. […] The flare value (photon count/msec) in the anterior chamber was determined 30 minutes after the puncture of anterior chamber using a laser flare cell meter (FC-1000, Kowa Company, Ltd.). […] An inhibition rate of inflammation after the puncture of anterior chamber was calculated according to the following equation. […]

[2] = pH 7.8

| Structure (SMILES) | concentration in the anterior aqueous humor at which the intraocular inflammation can be inhibited by at least not less than about 25% (therapeutically effective concentration) [1] | Octanol-water partition coefficient of 2-amino-3-(4-bromobenzoyl)phenylacetic acid [2] |
| --- | --- | --- |
| Nc1c(CC(=O)O)cccc1C(=O)c1ccc(Br)cc1 [2-Amino-3-(4-bromobenzoyl)phenylacetic acid] | not less than 1.5 ng/mL | – |
| Nc1c(CC(=O)[O-])cccc1C(=O)c1ccc(Br)cc1.Nc1c(CC(=O)[O-])cccc1C(=O)c1ccc(Br)cc1.O.O.O.[Na+].[Na+] [Control, Sodium 2-amino-3-(4-bromobenzoyl)phenylacetate 3/2 hydrate, reference compound] | – | 0.60 |
